Assays:
[1] = tested on: colorectal cancer HCT-116 model; test: In vivo pharmacodynamic study (3), HCT-116 model, tumor volume; parameters: species or system BALB/c nude mice; conditions: 60 mg/kg(D0-D11), 120 mg/kg (D12-D20), PO, QD × 21
Procedure: (§1) The in vivo pharmacodynamic experiments were performed on the BALB/c nude mice implanted subcutaneously with the colorectal cancer HCT-116 model.
(§2) BALB/c nude mice, female, 6-8 weeks, weighing approximately 18-22 g, were placed in a single ventilated cage (3-5 mice per cage) under a special pathogen free environment. All of the cages, beddings and water were disinfected before use. All of the animals were permitted free access to a standard certified commercial laboratory diet. A total of 48 mice purchased from Shanghai Lingchang Biotechnology Co., Ltd. were used for the study. Each mouse was implanted subcutaneously with 0.2 mL of 5×10^6 HCT-116 cells in the right back for tumor growth. The dosing in groups initiated when the average tumor volume reached about 132 mm^3. The tumor volume was measured twice a week using a two-dimensional caliper, and the volume was measured in mm^3, calculated by the following the formula: V=0.5 a×b^2, wherein, a and b were the long and short diameters of the tumor, respectively. The antitumor efficacy was determined by dividing the average increase in the tumor volume of the animals treated with the compound by the average increase in the tumor volume of the untreated animals.

[2] = target: T1, CDK6/cyclin D1 (Homo sapiens, UniProt Q00534); test: Enzyme activity assay CDK6/cyclin D1 (Lance Ultra); type: biochemical; conditions: 0.8 nM CDK6/cyclin D1, 250 μM ATP, 180 minutes
T1 construct: purchased Life technology
T1 sequence (Q00534 whole entry): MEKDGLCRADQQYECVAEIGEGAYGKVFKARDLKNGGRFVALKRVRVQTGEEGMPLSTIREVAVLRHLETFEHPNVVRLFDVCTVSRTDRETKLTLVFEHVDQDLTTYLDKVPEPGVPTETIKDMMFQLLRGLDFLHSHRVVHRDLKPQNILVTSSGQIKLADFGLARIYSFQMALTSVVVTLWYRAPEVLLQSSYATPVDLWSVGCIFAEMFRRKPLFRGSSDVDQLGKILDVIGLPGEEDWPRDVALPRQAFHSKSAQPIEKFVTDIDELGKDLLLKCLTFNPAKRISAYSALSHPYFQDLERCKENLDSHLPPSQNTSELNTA
T1 sequence (P24385 whole entry partner): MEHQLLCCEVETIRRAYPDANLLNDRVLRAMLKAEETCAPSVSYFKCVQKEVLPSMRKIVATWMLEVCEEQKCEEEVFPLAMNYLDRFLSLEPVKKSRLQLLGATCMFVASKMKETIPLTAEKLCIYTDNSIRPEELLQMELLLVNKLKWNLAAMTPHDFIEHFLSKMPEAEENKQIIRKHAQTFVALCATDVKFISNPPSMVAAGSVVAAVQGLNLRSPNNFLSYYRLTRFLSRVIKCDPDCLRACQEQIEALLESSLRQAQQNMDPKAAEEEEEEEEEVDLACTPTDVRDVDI
Procedure: CDK4/cyclin D1, CDK6/cyclin D1 (Life technology). ULight labeled polypeptide substrates ULight-4E-BP1 and ULight-MBP (PerkinElmer). Europium labeled anti-myelin basic protein antibody and europium labeled rabbit-derived antibody (PerkinElmer). Envision Multi-label Analyzer (PerkinElmer) for signal detection.
They were respectively dissolved in an enzyme buffer solution comprising: 50 mM hydroxyethylpiperazine ethanesulfuric acid solution at pH 7.5, 1 mM ethylenediaminetetraacetic acid, 10 mM magnesium chloride, 0.01% Brij-35, 2 mM dithiothreitol. After the reaction was started, the OptiPlate 384-well plate was sealed with a top heat seal film TopSeal-A and incubated at room temperature for 180 minutes.
The termination buffer solution of the enzymatic reaction was prepared, and EDTA was dissolved in a 1-fold diluted assay buffer solution. The reaction was terminated and incubated at room temperature for 5 minutes. 5 μL of the assay mixed solution (prepared with europium labeled anti-myelin basic protein antibody and europium labeled rabbit-derived antibody, respectively) was added to the reactions of CDK4/cyclin D1 and CDK6/cyclin D1, respectively, and incubated at room temperature for 60 minutes. The reaction signal was detected by Envision according to the time-resolved fluorescence resonance energy transfer theory.

[3] = In vivo pharmacodynamic study (3), HCT-116 model, animal weight; parameters: species or system BALB/c nude mice; conditions: 60 mg/kg(D0-D11), 120 mg/kg (D12-D20), PO
Procedure: as §1, §2

[4] = Two-way permeability evaluation assay of Caco-2 cells; conditions: human, Caco-2, pH 7.4
Procedure: Assay concentration: 2 μM (DMSO≤1%);
(§10) Direction: two-way transport, including two directions: A→B (intracellular→extracellular) and B→A (extracellular→intracellular);
(§11) Incubation time: single time point, 2 hours;
(§12) transport buffer solution: HBSS, pH 7.4;
Incubation conditions: 37° C., 5% CO2.
(§13) After the incubation, the sample solutions in the dosing wells and the receiving wells were immediately mixed with the cold acetonitrile solution containing the internal standard. The concentration of the tested compounds in all samples (including the initial dosing solution, the supernatant of the dosing wells, and the receiving solution) was analyzed by the LC/MS/MS method. The apparent permeability coefficient, the efflux ratio of and other parameters were calculated.

[5] = tested on: Caco-2 cells; test: as above; conditions: Caco-2
Procedure: Assay concentration: 2 μM (DMSO≤1%);
as §10, §11, §12
Incubation conditions: 37° C., 5% CO2.
as §13

[6] = Metabolic stability in mouse liver microsomes; type: in vitro ADME; conditions: 0.5 mg/mL protein, read-out: Mice T1/2
Procedure: (§3) This assay is used to test the metabolic stability of tested substances in rats, mice and human liver microsomes.
(§4) 1) The tested compound with concentration of 1 μM was co-incubated with liver microsomes with a protein concentration of 0.5 mg/mL under a reducing coenzyme II regeneration system in a 37° C. water bath.
(§5) 2) The positive controls include: testosterone (3A4 substrate), propafenene (2D6 substrate) and diclofenac (2C9 substrate). The incubation condition of the positive controls was consistent with that of the compound.
(§6) 3) The reaction time points were: 0, 5, 10, 20, 30 and 60 minutes, and the reaction is terminated at the corresponding time point using a termination solution containing an internal standard. The compounds were also incubated with microsomes for 60 minutes without a reducing coenzyme II regeneration system and served as a negative control.
(§7) 4) Each time point was a single point (n=1).
(§8) 5) The sample was determined by LC/MS/MS, and the compound concentration was shown as the ratio of the peak area of the compound to the peak area of the internal standard (non-standard).
(§9) 6) In the project report summary, the half-life and the clearance rate would be calculated.

[7] = Metabolic stability in rat liver microsomes; type: in vitro ADME; conditions: 0.5 mg/mL protein, read-out: Rats T1/2
Procedure: as §3, §4, §5, §6, §7, §8, §9

IC50 [2]: 3.65 nM
Changes in animal weight, 0 day ([3]; QD × 21, 0 day): 0%
Changes in animal weight, 7 days ([3]; QD × 21, 7 days): 2.5%
Changes in animal weight, 14 days ([3]; QD × 21, 14 days): −2.3%
Changes in animal weight, 21 days ([3]; QD × 21, 21 days): −5.9%
Papp A→B at 2 h, 2 μM [4]: 1.15 ×10⁻⁶ cm/s
Papp B→A at 2 h, 2 μM [4]: 16 ×10⁻⁶ cm/s
efflux ratio at 2 h, 2 μM [4]: 14
Category Efflux transporter substrate [5]: Highly
Category Permeability [5]: Low
half-life at 1 μM [6]: 40.2 min
half-life at 1 μM [7]: > 145 min
SMILES: CC(=O)c1c(C)c2cnc(Nc3cnc(N4CCN(CCN(C)C)CC4)cn3)cc2n(C2CCCC2)c1=O [Example 34]
Gross tumor volume, 0 day ([1]; 0 day): 132 mm^3
Gross tumor volume, 7 days ([1]; 7 days): 416 mm^3
Gross tumor volume, 14 days ([1]; 14 days): 695 mm^3
Gross tumor volume, 21 days ([1]; 21 days): 963 mm^3
